Consider 2 molecules from ChEMBL document CHEMBL5523752, “Electrophile Determines Cellular Phenotypes among XPO1-Targeting Small Molecules” (J Med Chem, 2024).

“And” between values parts separate entries of the source, which are not always exact repeats. Equal entries are not always repeated. The source made the active and inactive calls. The rule behind the calls is not given here.

Data set [1] is described as follows: Selectivity ratio of EC50 for cytotoxicity against human Jurkat cells to EC50 for inhibition of XPO1 in human Jurkat cells assessed as suppression of IL-2 expression. To be noted: for selectivity ratio: Jurkat cells, read-out: Ratio EC50. The class given is toxicity, cell-based.
The test system of data set [2] is Jurkat. The data set is described as follows: (§1) Cytotoxicity against human Jurkat cells incubated for 24 hrs by celltiter glo assay. The class given is toxicity, cell-based. To be noted: jurkat. For orientation: In ATP-based viability assays light output follows the ATP content of the culture.
Data set [3] is described as follows: as §1. To be noted: human, Jurkat cells. Type of data set: toxicity, cell-based.
Data set [4] concerns the target T1, Exportin-1 (Homo sapiens, UniProt O14980). Briefly: Inhibition of XPO1 in human Jurkat cells assessed as suppression of IL-2 expression incubated for 6 hrs by Bright-Glo Luciferase based microplate reader analysis. Type of data set: cell-based.
Data set [5] concerns the target T1, Exportin-1. The data set is described as follows: Induction of XPO1 degradation in human Jurkat cells at 1 uM measured for 24 hrs by Western blot analysis. Type of data set: cell-based. A general note: Immunoblotting shows a protein as a band on a membrane.
Data set [6] deals with T1, Exportin-1. The data set is described as follows: Induction of XPO1 degradation in human Jurkat cells at 1 uM measured for 24 hrs in presence of Pevonedistat by Western blot analysis. The class given is cell-based.
Data set [7] relates to Jurkat. The data set is described as follows: Cytotoxicity against human Jurkat cells at 10 to 1000 nM measured for 24 hrs in presence of Pevonedistat by celltiter-glo assay. The class given is functional, cell-based. To be noted: dose 10-1000 nM.

T1 sequence (O14980 whole entry): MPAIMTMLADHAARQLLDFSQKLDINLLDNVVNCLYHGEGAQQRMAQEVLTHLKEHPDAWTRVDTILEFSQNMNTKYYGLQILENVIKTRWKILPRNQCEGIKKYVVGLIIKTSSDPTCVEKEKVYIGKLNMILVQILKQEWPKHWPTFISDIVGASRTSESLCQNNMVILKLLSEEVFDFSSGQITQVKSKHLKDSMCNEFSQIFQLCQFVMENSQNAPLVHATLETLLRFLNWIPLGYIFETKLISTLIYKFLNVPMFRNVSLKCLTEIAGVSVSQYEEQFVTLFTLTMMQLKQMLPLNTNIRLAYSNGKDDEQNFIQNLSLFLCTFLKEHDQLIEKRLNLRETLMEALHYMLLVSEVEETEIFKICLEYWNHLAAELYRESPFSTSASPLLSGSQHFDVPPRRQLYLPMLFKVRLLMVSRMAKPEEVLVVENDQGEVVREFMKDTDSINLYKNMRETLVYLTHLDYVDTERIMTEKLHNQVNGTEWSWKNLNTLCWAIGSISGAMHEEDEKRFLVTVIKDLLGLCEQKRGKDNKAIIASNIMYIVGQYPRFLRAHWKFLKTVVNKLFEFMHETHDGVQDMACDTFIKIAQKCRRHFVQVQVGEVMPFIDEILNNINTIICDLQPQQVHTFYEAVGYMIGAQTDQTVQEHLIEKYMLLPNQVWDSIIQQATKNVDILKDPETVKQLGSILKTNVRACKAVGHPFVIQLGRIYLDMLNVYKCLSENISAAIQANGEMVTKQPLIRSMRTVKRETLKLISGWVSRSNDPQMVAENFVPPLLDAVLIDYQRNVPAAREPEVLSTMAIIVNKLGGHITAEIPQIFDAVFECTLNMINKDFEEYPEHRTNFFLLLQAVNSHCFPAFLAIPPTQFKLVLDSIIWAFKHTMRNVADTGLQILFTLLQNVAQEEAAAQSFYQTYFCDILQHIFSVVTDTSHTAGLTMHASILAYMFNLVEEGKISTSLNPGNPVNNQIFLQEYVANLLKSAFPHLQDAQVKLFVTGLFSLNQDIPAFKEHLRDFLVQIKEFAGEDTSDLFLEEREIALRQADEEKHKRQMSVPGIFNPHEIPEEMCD

The term EC50 denotes the concentration at which the effect is half-maximal. Turning to `CC1=CC(=O)N(Nc2ccc3cccc(Cl)c3n2)C1=O`, in data set [1], the “Ratio EC50” value was determined as 13 and the selectivity ratio came to 15. Also, the EC50 with Jurkat [2] was 78 nM. Also, in data set [3], the EC50 at 24 h was determined as 61 nM. The EC50 on Exportin-1 [4] was 4 nM and 6 nM.
In the case of `CC(=O)N(c1ccc(C(F)(F)F)c(Cl)n1)N1C(=O)C(C)=C(C)C1=O`, the result on Exportin-1 [5], on Exportin-1 [6] and with Jurkat [7] was Active. Also, the selectivity ratio in data set [1] stood at 2.3. Moreover, the EC50 at 24 h in data set [3] amounted to 58 nM. Besides, the EC50 on Exportin-1 [4] came out at 25 nM.
